# Test results published in patent US10875861B1, “Therapeutic compounds” (Rutgers, The State University of New Jersey, priority 2017, dated 2020).
# pEC50: −log10 of the molar value.
# What was measured:
# [1] = system: glioblastoma cancer cell line; assay: MTT viability assay with glioblastoma cancer cell line (Test A); format: cell-based, human; settings: Homo sapiens, 72 hours
# Source text: To generate primary patient-derived GBM models for testing small molecule inhibitors, fresh primary tissues were received from patients undergoing surgical resection of WHO grade IV gliomas at Robert Wood Johnson University Hospital (RWJUH) under an approved IRB protocol. De-identified primary human GBM samples were delivered to the laboratory. Cells were obtained through mechanical dissociation of the tumor tissue using a blade and plated in DMEM/F12 medium (Gibco) in the presence of B-27 Supplement (Gibco, #17504-044), 20 ng/ml of human recombinant EGF (Gibco, #PHG0311L) and human recombinant FGF (Peprotech, #AF-100-18B). The following day, the culture was collected, incubated with Accutase (Gibco, #A11105-01) at 37° C. and passed through a 26G×⅜ needle (BD Precision Glide, #305110) to obtain a single cell suspension and re-plated in the same supplemented medium. Cells were cultured at low (5-6) passages in serum-free sphere 3D culture with mitogens that preserve the clonogenic stemness phenotype. […] different primary GBM cells (GBM #46, GBM #50, and GBM #76) were tested for cell viability after treatment with the inhibitors. Cell viability was measured using MTT assay. Briefly, one thousand cells per well were seeded in 96-well plates and exposed to drug in a total of 200 uL media. After 72 hours, 50 uL of stock concentration of 2.5 mg/mL 3-(4,5-dimethylthiazol-2-yl)-2,5-diphenyltetrazolium bromide (MTT) (Sigma, #M2128) dissolved in PBS was added to wells and incubated at 37° C. for 4 hours; read in a […] plate reader at 570 nm and compared to DMSO and untreated cells. The IC50 (defined as the concentration at which 50% of the cells were viable) was determined from the curve.
# Accordingly, compounds of the invention may be useful as therapeutic agents for the treatment of cancer.
# To generate primary patient-derived GBM models for testing small molecule inhibitors, fresh primary tissues were received from patients undergoing surgical resection of WHO grade IV gliomas at Robert Wood Johnson University Hospital (RWJUH) under an approved RB protocol. De-identified primary human GBM samples were delivered to the laboratory. Cells were obtained through mechanical dissociation of the tumor tissue using a blade and plated in DMEM/F12 medium (Gibco) in the presence of B-27 Supplement (Gibco, #17504-044), 20 ng/ml of human recombinant EGF (Gibco, #PHG0311L) and human recombinant FGF (Peprotech, #AF-100-18B). […] Cell viability was measured using MTT assay. […] After 72 hours, 50 uL of stock concentration of 2.5 mg/mL 3-(4,5-dimethylthiazol-2-yl)-2,5-diphenyltetrazolium bromide (MTT) (Sigma, #M2128) dissolved in PBS was added to wells and incubated at 37° C. for 4 hours; read in a […] plate reader at 570 nm and compared to DMSO and untreated cells. […]
# [2] = system: BMI-1 and ubiquitinated histone H2A in primary glioblastoma cells; assay: Modulation / dynamics of BMI-1 and downstream targets in GBM cells (Western blotting); format: cell-based, human; settings: GBM cells, B compounds, 72 hours
# Procedure: Different GBM cells were treated with DMSO or different concentrations of the B compounds for 72 hours. Cells were lysed in Cell Lysis Buffer (Cell Signaling, #9803) supplemented with Protease Inhibitor Cocktail (Sigma, #P8340), spun down for 30 minutes at 4° C., after which the supernatant was collected at every time point indicated. Western blotting analysis was performed on all samples as described above. BMI-1 loss started at 6-12 h, coinciding with an upper shift and hyper-phosphorylation of BMI-1 at 12-24 h and complete depletion at 72 h.
# To study the compound dynamic activity against GBM spheres, GBMs were tested with exemplary compounds. Different GBM cells were treated with DMSO or different concentrations of the inhibitors for 72 hours. Cells were lysed in Cell Lysis Buffer (Cell Signaling, #9803) supplemented with Protease Inhibitor Cocktail (Sigma, #P8340), spun down for 30 minutes at 4° C., after which the supernatant was collected at every time point indicated. Western blotting analysis was performed on all samples as described above. […] BMI-1 loss started at 6-12 h, coinciding with an upper shift and hyper-phosphorylation of BMI-1 at 12-24 h and complete depletion at 72 h. […] This is expected since BMI-1 is known to suppress p21. BMI-1 inhibition could be reversed using phosphatase treatment, moreover, when proteasomal inhibitor is added to treated cells after 24 h, BMI-1 is locked in the phosphorylated state, therefore showing that the phosphorylation event precedes BMI-1 degradation. The phosphorylation was independent of p38 kinase activation, as when we added […], the p38 inhibitor to the cultured cells upon treatment with the BMI-1 inhibitor, the combined treatment could not reverse the effects of RU-A15 on BMI-1 inhibition.
compound,measurement,setting,value
"COc1ccc(Nc2nc(-c3nc4ncccn4c3C)cs2)cc1 [Example B1, N-(4-methoxyphenyl)-4-(3-methylimidazo[1,2-a]pyrimidin-2-yl)thiazol-2-amine]",pEC50,[1],5.30
same,modulation of BMI-1 (Test B),[2],modulation of BMI-1
same,modulation of ubiquitinated histone H2A (Test B),[2],modulation of downstream target ubiquitinated histone H2A
